In US9370511B2, “Morphinan-derivatives for treating diabetes and related disorders” (priority 2011, dated 2016):
Entries after “also recorded” stand apart in the source; their conditions may differ.

Tests used:
diabetics = conditions: long-term experience; cited from earlier work
mouse pancreatic islets = assay: Insulin secretion from mouse pancreatic islets at low and high glucose; format: cell-based; conditions: comparison of DXO, DXM and LEV
Protocol: (§1) Mouse pancreatic islets were treated with a low, non-stimulatory glucose concentration (2.5 mM) or a high, stimulatory glucose concentration (25 mM) in the absence or presence of 1 μM or 10 μM dextrorphan. Insulin secretion was determined as percent of […] glucose control, and values are expressed as means+/−SD (N=3). The asterisks (*) indicate p values smaller than 0.05 in Student's t-tests.
Low Glucose (2.5 mM); High Glucose (25 mM); p<0.05 (Student's t-Test), N=3.
Example 1 was repeated in order to compare dextrorphan, dextromethorphan, and levorphanol with one another.

[1] = test system: db/db mouse (an animal model for human type 2 diabetes mellitus); assay: Long-term treatment of db/db mice with dextromethorphan in drinking water; format: in vivo
Text: Therefore, long-term treatment with dextromethorphan is beneficial for beta cell function and blood glucose control in a mouse model for human type 2 diabetes mellitus.

[2] = test system: male subjects with type 2 diabetes mellitus; assay: Clinical trial, oral single dose followed by oral glucose tolerance test (OGTT); format: in vivo, human
Protocol: The study was designed as a randomized, double-blind, placebo-controlled crossover study to investigate the glucose lowering effect of oral single doses of DXM 270 mg (FIG. 10) and DXM 60 mg (FIG. 11) vs. placebo in subjects with T2DM following an oral glucose tolerance test (OGTT). DXM 270 mg, DXM 60 mg or placebo was administered orally at 0 minutes. OGTT was started at 60 minutes (75 g glucose orally). Blood glucose levels were measured at the indicated times. n=20 male with T2DM on a stable regimen of metformin monotherapy, between 45 and 70 years of age, with a BMI between 25 and 35 kg/m2, HbA1c between 7 and 8%. Student's t-test. *p=0.01, **p<0.001All values are means±SD.

[3] = test system: painful diabetic neuropathy; conditions: in vivo; cited from earlier work
[4] = test system: children with severe bacterial meningitis; conditions: 36 mg kg^−1 day^−1; two children, also on glucocorticoids; cited from earlier work
human pancreatic islets = assay: Insulin secretion from human pancreatic islets at low and high glucose; format: cell-based; conditions: 1 μM; low glucose 2 mM vs high glucose 20 mM
Protocol: as §1
Example 1 was repeated but the mouse pancreatic islets were replaced by human pancreatic islets.
Low Glucose (2 mM); High Glucose (20 mM); the asterisks (*) indicate p values smaller than 0.05 in Student's t-tests.

[5] = 3 mg/ml in drinking water, 8 weeks, compared to low dose 1 mg/ml

CN(C)C(=N)N=C(N)N [metformin]
reduction of diabetes complications and mortality (diabetics): about 30%

CN1CC[C@]23CCCC[C@H]2[C@H]1Cc1ccc(O)cc13 [levorphanol]
glucose-dependent insulin secretion, compared with levorphanol (mouse pancreatic islets): not the levorotatory (−) stereoisomer that mainly targets opioid receptors, increases glucose-dependent insulin secretion to a large extent

COc1ccc2c(c1)[C@]13CCCC[C@@H]1[C@H](C2)N(C)CC3 [dextromethorphan, (+)-3-methoxy-17-methyl-(9α,13α,14α)-morphinan]
glucose-dependent insulin secretion, compared with levorphanol (mouse pancreatic islets): significantly more effective in inducing glucose-dependent insulin secretion than levorphanol
glucose-dependent insulin secretion, compared with levorphanol (mouse pancreatic islets; listed as DXM): increase glucose-dependent insulin secretion from pancreatic islets to a significantly larger extent compared to LEV
effectiveness of the low dose ([1]; 1 mg/ml in drinking water): ineffective
beta cell area [1, 5]: significantly larger
insulin content of islets [1, 5]: significantly increased; also recorded: contained significantly more insulin
starving blood glucose levels [1, 5]: significantly improved starving blood glucose levels; also recorded: lower blood glucose levels or better blood glucose control
blood glucose levels during oral glucose tolerance test ([2]; 60 mg oral single dose vs placebo): too low a concentration
starving blood glucose levels ([2]; 270 mg oral single dose): does not affect starving blood glucose levels
blood glucose levels during oral glucose tolerance test ([2]; 270 mg oral single dose vs placebo): significantly lowers blood glucose levels after glucose uptake
hypoglycemic events ([2]; 20 patients, oral single doses): no hypoglycemic events were observed
efficacy in painful diabetic neuropathy [3]: effective in treating painful diabetic neuropathy
serious adverse event [4]: developed an insulin dependent diabetes mellitus

COc1ccc(Cl)cc1C(=O)NCCc1ccc(S(=O)(=O)NC(=O)NC2CCCCC2)cc1 [glibenclamide]
insulin secretion, basal and glucose-stimulated (human pancreatic islets): increases both basal (2 mM glucose) and glucose-stimulated (20 mM glucose) insulin secretion
